Source: article PMC9820303, “^αN-Acetyl β-Endorphin Is an Endogenous Ligand of σ1Rs That Regulates Mu-Opioid Receptor Signaling by Exchanging G Proteins for σ2Rs in σ1R Oligomers” (International Journal of Molecular Sciences, 2022)
“Also recorded” adds a separate entry of the source.

Legend:
σ1R-BiP = biological target: T1, σ1R-BiP (Mus musculus, UniProt O55242); test: In vitro σ1R-BiP association of recombinant proteins (Western blot); type: biochemical; settings: for effect on σ1R-BiP association: increasing concentrations, 30 min RT, vs control without ligand; for activity at σ1R-BiP against agonists / β-End 1–31: 1 nM β-End 1–31 with increasing competitor (Figure S10)
T1 construct: The coding region of the full-length murine σ1R (AF004927); GST (N, cleaved yes); host or cells: E. coli BL21 (KRX) for σ1R
Protocol: (§1) Figure 7 Effect of β-End 1–31, ^αN-acetyl β-End 1–31 and their N-terminal derivatives on σ1R-σ2R, σ1R-NR1 C1 and σ1R-BiP associations. Amino acid sequence of β-End 1–31 showing derivatives 1–26 and 1–27. (A) HaloLink-attached σ2Rs were incubated for 30 min at RT in the presence of σ1Rs (100 nM) in 300 μL of 50 mM Tris-HCl (pH 7.4), 0.2% CHAPS, and 2.5 mM CaCl2. After removing the unbound σ1R proteins, the effects of increasing the peptide concentrations on σ1R-σ2R associations were studied. At the end of the incubation, protein complexes bound to HaloLink-σ2R were obtained by centrifugation, washed three times, solubilized in 2× Laemmli buffer containing β-mercaptoethanol, resolved by SDS-PAGE, and analyzed by Western blotting (for more details, see Section 4). This protocol was also used to assess the effect of ligands on (B) σ1R-NR1 C1 and (C) σ1R-BiP associations. Data were compared to that of the control, which was obtained in the absence of ligands. (A–C) Data are the mean ± SD, n = 3. (D) The β-End 1–31 structural models were predicted by Novafold (DNASTAR Lasergene protein v.17, Inc., Madison, WI, USA). Ribbon model: The 3D structure, charge distribution and hydrophobicity map of β-End 1–31 are shown. Positive charges are shown in red and negative charges in blue. Polar surfaces are shown in yellow, and nonpolar surfaces are shown in orange. Linear model: the opioid (1–5) and flexible region (8–11) sequences are shown in green and orange, respectively, and the amphiphilic helix (15–25) is shown in pink.
(§2) The recombinant σ1R (100 nM) was incubated either with Haloprotein (negative control) or together with the immobilized σ2R, NR1 C0-C1-C2 or BiP proteins in 300 µL of a buffer containing 50 mM Tris-HCl (pH 7.4) and 0.2% CHAPS in the presence of 2.5 mM CaCl2 for 30 min at RT. After removal of the unbound σ1R, the agarose-attached complexes were incubated for 30 min with rotation at RT in the presence of increasing concentrations of the ligands in a final reaction volume of 300 µL [50 mM Tris-HCl (pH 7.4), 2.5 mM CaCl2 and 0.2% CHAPS]. Ligands were usually dissolved in aqueous solutions; however, when an organic solvent such as DMSO was required to incorporate, e.g., pregnenolone sulfate, the solvent remained below 1% in the assay buffer. Agarose pellets containing the bound proteins were obtained by centrifugation, washed and resuspended thrice in the presence of 2.5 mM CaCl2, solubilized in 2× Laemmli buffer plus β-mercaptoethanol, and analyzed by Western blotting.
(§3) Because all the assays were performed with recombinant proteins, the immune signals provided a single band of the expected size, which was used for the subsequent densitometry analysis. Accordingly, no other regions of the blots provided information and were routinely excluded from the analysis.
Figure S8. Effect of the physiological and nonphysiological sequences of β-End 1-31 and classical σ1R ligands on BiP-σ1R, σ2R-σ1R and NR1 C1-σ1R associations . Agarose-BiP was loaded with σ1Rs, and after the unbound σ1Rs were removed, the agarose-BiP-σ1R complexes were incubated in the absence (control) and presence of increasing concentrations of (A) β-End 1-31 C-terminal physiological derivatives and (B) classical σ1R ligands. C) Agarose-σ2R loaded with σ1Rs was incubated in the absence (control) and with nonphysiological derivatives of β-End 1-31. D) Agarose-NR1 C1 loaded with σ1Rs were incubated in the absence (control) and with nonphysiological derivatives of β-End 1-31. A-D) The σ1Rs that remained attached to the agarose complexes were evaluated by Western blotting. The […]
(1 picture or pasted object on this page, not shown here)
Figure S10. Effect of σ1R agonist/antagonist ligands on σ1R-BiP associations. Agarose-attached BiP proteins were incubated for 30 min in the presence of recombinant σ1R (100 nM) proteins in 300 μL of 50 mM Tris-HCl (pH 7.4), 0.2% CHAPS, and 2.5 mM CaCl2. After the unbound σ1R proteins were […]

σ1R-σ2R = σ1R-σ2R (Mus musculus, UniProt O55242); test: In vitro σ1R-σ2R association of recombinant proteins (HaloLink-σ2R, Western blot); type: biochemical, murine; set-up: The coding region of the full-length murine σ1R (AF004927); GST (N, cleaved yes); made in house; host or cells: E. coli BL21 (KRX); settings: for EC50 to disrupt σ1R-σ2R interactions (range in words): 50 mM Tris-HCl pH 7.4, 0.2% CHAPS, 2.5 mM CaCl2, 30 min RT, n = 3; for effect on σ1R-σ2R association: increasing concentrations, 30 min RT, vs control without ligand; for effect on the disruption of σ1R-σ2R associations by β-End 1–31: fixed concentration of β-End 1–31 (or β-End 1–27), increasing competitor
Protocol: as §1, §2, §3
Figure S7. Effect of σ1R agonist/antagonist ligands on σ1R-σ2R heterodimers. (A-C) Agarose (Θ)- attached σ2Rs captured recombinant σ1Rs. After removing unbound σ1R proteins, the Θ-σ2R.σ1R complexes were incubated with a ﬁxed concentration of a selected L1 ligand (indicated in brackets) in the absence and presence of increasing concentrations of competing σ1R ligands as indicated. The σ1Rs that remained attached to the Θ-σ2Rs were evaluated by Western blotting. * Signiﬁcant differences with respect to the control group that was incubated without L1 ligands. ANOVA followed by the Holm-Sidak multiple comparisons test, p < 0.05. For details, see Methods and Figure 6A. Representative blots are […]
Figure S8. Effect of the physiological and nonphysiological sequences of β-End 1-31 and classical σ1R ligands on BiP-σ1R, σ2R-σ1R and NR1 C1-σ1R associations . Agarose-BiP was loaded with σ1Rs, and after the unbound σ1Rs were removed, the agarose-BiP-σ1R complexes were incubated in the absence (control) and presence of increasing concentrations of (A) β-End 1-31 C-terminal physiological derivatives and (B) classical σ1R ligands. C) Agarose-σ2R loaded with σ1Rs was incubated in the […]

Sequence of σ1R-σ2R (O55242 whole entry): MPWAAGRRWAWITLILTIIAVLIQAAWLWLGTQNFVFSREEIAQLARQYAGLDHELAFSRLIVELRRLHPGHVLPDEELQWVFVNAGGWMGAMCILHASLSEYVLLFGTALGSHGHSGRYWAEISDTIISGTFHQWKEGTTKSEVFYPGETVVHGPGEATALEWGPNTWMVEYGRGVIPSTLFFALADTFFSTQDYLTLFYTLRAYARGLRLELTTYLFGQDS
T1 sequence (O55242 whole entry): as above

Row | Compound | effect on σ1R-BiP association (σ1R-BiP) | EC50 to disrupt σ1R-σ2R interactions (range in words) (σ1R-σ2R) | effect on σ1R-σ2R association (σ1R-σ2R) | activity at σ1R-BiP against agonists / β-End 1–31 (σ1R-BiP) | affinity toward σ1R indicated by the potency to counteract the β-End 1–31 effect (σ1R-σ2R; competition with β-End 1–31 on σ1R-σ2R (Figure S7A)) | effect on the disruption of σ1R-σ2R associations by β-End 1–31 (σ1R-σ2R)
1 | β-End 1–27: β-End 1–31 derivative without 4 C-terminal residues (YGGFMTSEKSQTPLVTLFKNAIIKNAY; Beta-endorphin; UniProt P01189 237-263, looked up, fragment) | disrupted these complexes with potencies in the pM/nM range | low–medium nM range |  |  |  | 
2 | YKKGE [β-End 27–31, C-terminal pentapeptide of β-End 1–31] | increased |  | reduced σ1R-σ2R |  |  | 
3 | COC(=O)[C@]1(c2ccc(C)cc2)C[C@@H]1CN1CCC(O)(c2ccccc2)CC1 [PPCC, (1R,2S/1S,2R)-2-[4-hydroxy-4-phenylpiperidin-1-yl)methyl]-1-(4-methylphenyl) cyclopropanecarboxylate, reference compound] | impaired σ1R associations with σ2R and BiP |  | impaired σ1R associations with σ2R and BiP |  |  | 
4 | Cl.O=C(OCCN1CCOCC1)C1(c2ccccc2)CCCCC1 [PRE084, 2-(4-morpholinethyl)-1-phenylcyclohexanecarboxylate hydrochloride, reference compound] | impaired σ1R associations with σ2R and BiP |  | impaired σ1R associations with σ2R and BiP |  |  | 
5 | ^αN-acetyl β-End 1–31: β-End 1–31 acetylated at N terminal Y1, α position | weak at σ1R-BiP associations; also recorded: inactive |  | strengthened | neither exhibited activity at σ1R-BiP nor reduced the effect of β-End 1–31 | fM range | antagonized
6 | KKGE [β-End 28–31, C-terminal tetrapeptide of β-End 1–31] | weak direct effect on σ1R-BiP complexes |  | promoted σ1R-σ2R associations | neither exhibited activity at σ1R-BiP nor reduced the effect of β-End 1–31 |  | counteracted
7 | β-End 6–31: β-End 1–31 lacking the N-terminal met-enkephalin 1–5 sequence (TSEKSQTPLVTLFKNAIIKNAYKKGE; Beta-endorphin; UniProt P01189 242-267, looked up, fragment) |  |  | diminished σ1R-σ2R associations |  |  | 
8 | Cc1cc(OCCN2CCOCC2)nn1-c1ccc2ccccc2c1 [S1RA] | did the opposite |  | did the opposite |  |  | 
9 | β-End 22–31: nonphysiological C-terminal sequence of β-End 1–31 (IIKNAYKKGE; Beta-endorphin; UniProt P01189 258-267, looked up, fragment) |  |  | promoted their association |  |  | 
10 | Br.Br.CN(C)CCN(C)CCc1ccc(Cl)c(Cl)c1 [BD1047, N′-[2-(3,4-dichlorophenyl)ethyl]-N,N,N′-trimethylethane-1,2-diamine;dihydrobromide, reference compound] | did the opposite |  | did the opposite |  |  | 
11 | β-End 1–26: β-End 1–31 derivative without 5 C-terminal residues (YGGFMTSEKSQTPLVTLFKNAIIKNA; Beta-endorphin; UniProt P01189 237-262, looked up, fragment) | disrupted these complexes with potencies in the pM/nM range | low–medium nM range |  |  |  | 
